From patent US8017767B2, “Sucralose composition” (Tate & Lyle Public Limited Company, priority 2000, dated 2011)

Assay: Accelerated stability test (50° C.) with pH stability test of sucralose sample solution
Assay type: physicochemical
Conditions: for Days to pH Failure / Ph Stability: 50° C.; for Days to pH Failure: WHIRLPAK polyethylene bags, failure = pH drop ≧1.0; for Days to pH Failure / Initial pH: Example 1, sodium acetate in mother liquor varied; for Initial pH: sample solution (5 g in 50 ml pH-adjusted water) at time zero; for Initial pH difference: sample solution vs pH-adjusted water at time zero, (−) pH drop, (+) pH gain, Example 1
Excerpt: Label seven 6 oz. and seven 18 oz. WHIRLPAK® polyethylene bags with indelible marker for each batch being tested for stability. Accurately weigh 25 g±0.01 g of sucralose into each 6 oz. WHIRLPAK® polyethylene bag. Heat or impulse seal the 6 oz. bag to ensure air tightness. Cut off any excess polyethylene at the top of the bag above the seal. Place the 6 oz. sealed bag into the 18 oz. bag and heat or impulse seal the 18 oz. bag to ensure air tightness. Roll down the top of the 18 oz. bag above the seal and bend the metal ties to form hooks.
Place the prepared bags into an oven stabilized at 50° C.±0.5° C. by hanging them from racks by the bag hooks. The bags must be freely suspended and not touch anything. Record the time samples are placed into the oven.
The pH stability test is conducted on the sucralose at time zero (the day the samples are placed in the oven, before the sucralose is exposed to elevated temperature) and every 24 hours until the batch being tested fails the test.
Place approximately 100 ml of deionized water into a 150 ml beaker. Using 0.1 N hydrochloric acid and/or 0.1 N sodium hydroxide, adjust the pH of the water to be between 5.8 and 6.0. Record the pH reading.
Accurately weigh 5 g±0.001 g of the product to be tested and transfer it to a 50 ml volumetric flask. Dissolve and bring to the mark by adding pH-adjusted water. If the sample to be tested is one that has been exposed to heat, remove one bag of the batch being tested from the oven and allow it to cool to room temperature before opening and sampling.
Pour the solution into a 100 ml beaker containing a stir bar, and slowly stir the solution on a magnetic stirrer. Immerse the pH electrode in the sample, allow the pH reading to stabilize, and record the pH reading of the sample. If no pH drop is observed after all the bags have been tested, the experiment is void and the test must repeated with a larger number of bags.
Record (to one decimal place) the pH of both the pH-adjusted water used and the sample sucralose solution. Subtract the pH of the […]. Report the result as (−) for a pH drop and (+) for a pH gain, e.g.:
The sample fails the test if there is a pH drop of 1.0 pH unit or more. The pH stability of the batch is defined as the number of days until the pH drop between the sample solution and that of the pH adjusted water is ≧1.0.
Samples of sucralose were tested for stability using the above procedures, but using bags of different moisture permeability. All other experimental details were the same. The TYVEK®/polyethylene bags are permeable; the WHIRLPAK® bags are less permeable. The A8080 bag consists of aluminum foil laminated to low-density polyethylene, which makes it very impermeable to moisture.

Days to pH Failure | Initial pH | Initial pH difference | Ph Stability (package A8080 (aluminum foil laminated to low-density polyethylene), impermeable) | Ph Stability (package FF 91 TYVEK/Polyethylene, very permeable) | Ph Stability (package WHIRLPAK Polyethylene, moderately permeable) | SMILES
6 Days | 5.72 | −0.20 | – | – | – | OC[C@H]1O[C@H](O[C@]2(CCl)O[C@H](CCl)[C@@H](O)[C@@H]2O)[C@H](O)[C@@H](O)[C@H]1Cl [Sample 1, 4,1′,6′-trichloro-4,1′,6′-trideoxy-galactosucrose]
6 Days | 5.73 | −0.19 | – | – | – | OC[C@H]1O[C@H](O[C@]2(CCl)O[C@H](CCl)[C@@H](O)[C@@H]2O)[C@H](O)[C@@H](O)[C@H]1Cl [Sample 2, 4,1′,6′-trichloro-4,1′,6′-trideoxy-galactosucrose]
6 Days | 5.44 | −0.48 | – | – | – | OC[C@H]1O[C@H](O[C@]2(CCl)O[C@H](CCl)[C@@H](O)[C@@H]2O)[C@H](O)[C@@H](O)[C@H]1Cl [Sample 3, 4,1′,6′-trichloro-4,1′,6′-trideoxy-galactosucrose]
6 Days | 5.64 | −0.28 | – | – | – | OC[C@H]1O[C@H](O[C@]2(CCl)O[C@H](CCl)[C@@H](O)[C@@H]2O)[C@H](O)[C@@H](O)[C@H]1Cl [Sample 4, 4,1′,6′-trichloro-4,1′,6′-trideoxy-galactosucrose]
6 Days | 5.64 | −0.28 | – | – | – | OC[C@H]1O[C@H](O[C@]2(CCl)O[C@H](CCl)[C@@H](O)[C@@H]2O)[C@H](O)[C@@H](O)[C@H]1Cl [Sample 5, 4,1′,6′-trichloro-4,1′,6′-trideoxy-galactosucrose]
4 Days | 5.53 | −0.39 | – | – | – | OC[C@H]1O[C@H](O[C@]2(CCl)O[C@H](CCl)[C@@H](O)[C@@H]2O)[C@H](O)[C@@H](O)[C@H]1Cl [Sample 6, 4,1′,6′-trichloro-4,1′,6′-trideoxy-galactosucrose]
5 Days | 5.70 | −0.22 | – | – | – | OC[C@H]1O[C@H](O[C@]2(CCl)O[C@H](CCl)[C@@H](O)[C@@H]2O)[C@H](O)[C@@H](O)[C@H]1Cl [Sample 7, 4,1′,6′-trichloro-4,1′,6′-trideoxy-galactosucrose]
5 Days | 5.19 | −0.73 | – | – | – | OC[C@H]1O[C@H](O[C@]2(CCl)O[C@H](CCl)[C@@H](O)[C@@H]2O)[C@H](O)[C@@H](O)[C@H]1Cl [Sample 8, 4,1′,6′-trichloro-4,1′,6′-trideoxy-galactosucrose]
7 Days | 6.19 | +0.23 | – | – | – | OC[C@H]1O[C@H](O[C@]2(CCl)O[C@H](CCl)[C@@H](O)[C@@H]2O)[C@H](O)[C@@H](O)[C@H]1Cl [Sample 9, 4,1′,6′-trichloro-4,1′,6′-trideoxy-galactosucrose]
5 Days | 5.90 | −0.05 | – | – | – | OC[C@H]1O[C@H](O[C@]2(CCl)O[C@H](CCl)[C@@H](O)[C@@H]2O)[C@H](O)[C@@H](O)[C@H]1Cl [Sample 10, 4,1′,6′-trichloro-4,1′,6′-trideoxy-galactosucrose]
6 Days | 6.05 | +0.10 | – | – | – | OC[C@H]1O[C@H](O[C@]2(CCl)O[C@H](CCl)[C@@H](O)[C@@H]2O)[C@H](O)[C@@H](O)[C@H]1Cl [Sample 11, 4,1′,6′-trichloro-4,1′,6′-trideoxy-galactosucrose]
6 Days | 5.85 | −0.10 | – | – | – | OC[C@H]1O[C@H](O[C@]2(CCl)O[C@H](CCl)[C@@H](O)[C@@H]2O)[C@H](O)[C@@H](O)[C@H]1Cl [Sample 12, 4,1′,6′-trichloro-4,1′,6′-trideoxy-galactosucrose]
5 Days | 5.85 | −0.10 | – | – | – | OC[C@H]1O[C@H](O[C@]2(CCl)O[C@H](CCl)[C@@H](O)[C@@H]2O)[C@H](O)[C@@H](O)[C@H]1Cl [Sample 13, 4,1′,6′-trichloro-4,1′,6′-trideoxy-galactosucrose]
6 Days | 5.95 | +0.02 | – | – | – | OC[C@H]1O[C@H](O[C@]2(CCl)O[C@H](CCl)[C@@H](O)[C@@H]2O)[C@H](O)[C@@H](O)[C@H]1Cl [Sample 14, 4,1′,6′-trichloro-4,1′,6′-trideoxy-galactosucrose]
5 Days | 6.06 | +0.13 | – | – | – | OC[C@H]1O[C@H](O[C@]2(CCl)O[C@H](CCl)[C@@H](O)[C@@H]2O)[C@H](O)[C@@H](O)[C@H]1Cl [Sample 15, 4,1′,6′-trichloro-4,1′,6′-trideoxy-galactosucrose]
6 Days | 6.20 | +0.27 | – | – | – | OC[C@H]1O[C@H](O[C@]2(CCl)O[C@H](CCl)[C@@H](O)[C@@H]2O)[C@H](O)[C@@H](O)[C@H]1Cl [Sample 16, 4,1′,6′-trichloro-4,1′,6′-trideoxy-galactosucrose]
6 Days | 6.03 | +0.10 | – | – | – | OC[C@H]1O[C@H](O[C@]2(CCl)O[C@H](CCl)[C@@H](O)[C@@H]2O)[C@H](O)[C@@H](O)[C@H]1Cl [Sample 17, 4,1′,6′-trichloro-4,1′,6′-trideoxy-galactosucrose]
6 Days | 6.00 | +0.07 | – | – | – | OC[C@H]1O[C@H](O[C@]2(CCl)O[C@H](CCl)[C@@H](O)[C@@H]2O)[C@H](O)[C@@H](O)[C@H]1Cl [Sample 18, 4,1′,6′-trichloro-4,1′,6′-trideoxy-galactosucrose]
6 Days | 6.06 | +0.13 | – | – | – | OC[C@H]1O[C@H](O[C@]2(CCl)O[C@H](CCl)[C@@H](O)[C@@H]2O)[C@H](O)[C@@H](O)[C@H]1Cl [Sample 19, 4,1′,6′-trichloro-4,1′,6′-trideoxy-galactosucrose]
6 Days | 6.09 | +0.08 | – | – | – | OC[C@H]1O[C@H](O[C@]2(CCl)O[C@H](CCl)[C@@H](O)[C@@H]2O)[C@H](O)[C@@H](O)[C@H]1Cl [Sample 20, 4,1′,6′-trichloro-4,1′,6′-trideoxy-galactosucrose]
6 Days | 6.05 | +0.10 | – | – | – | OC[C@H]1O[C@H](O[C@]2(CCl)O[C@H](CCl)[C@@H](O)[C@@H]2O)[C@H](O)[C@@H](O)[C@H]1Cl [Sample 21, 4,1′,6′-trichloro-4,1′,6′-trideoxy-galactosucrose]
6 Days | 6.08 | +0.09 | – | – | – | OC[C@H]1O[C@H](O[C@]2(CCl)O[C@H](CCl)[C@@H](O)[C@@H]2O)[C@H](O)[C@@H](O)[C@H]1Cl [Sample 22, 4,1′,6′-trichloro-4,1′,6′-trideoxy-galactosucrose]
5 Days | 6.12 | +0.13 | – | – | – | OC[C@H]1O[C@H](O[C@]2(CCl)O[C@H](CCl)[C@@H](O)[C@@H]2O)[C@H](O)[C@@H](O)[C@H]1Cl [Sample 23, 4,1′,6′-trichloro-4,1′,6′-trideoxy-galactosucrose]
5 Days | 6.02 | +0.03 | 8 days | 4 days | 5 days | OC[C@H]1O[C@H](O[C@]2(CCl)O[C@H](CCl)[C@@H](O)[C@@H]2O)[C@H](O)[C@@H](O)[C@H]1Cl [Sample 24, 4,1′,6′-trichloro-4,1′,6′-trideoxy-galactosucrose]
6 Days | 6.03 | +0.05 | – | – | – | OC[C@H]1O[C@H](O[C@]2(CCl)O[C@H](CCl)[C@@H](O)[C@@H]2O)[C@H](O)[C@@H](O)[C@H]1Cl [Sample 25, 4,1′,6′-trichloro-4,1′,6′-trideoxy-galactosucrose]
